Experimental data: the supplement of paper PMC10307832

How the values were obtained:
Assay in all cases: relative viability (nuclei count vs DMSO), 5 days (fraction); higher = more cells survive
Pictilisib + Bortezomib = compound: CS(=O)(=O)N1CCN(Cc2cc3nc(-c4cccc5[nH]ncc45)nc(N4CCOCC4)c3s2)CC1 [Pictilisib] + CC(C)C[C@H](NC(=O)[C@H](Cc1ccccc1)NC(=O)c1cnccn1)B(O)O [Bortezomib] (partner 0.002 µM)
In short: (§1)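 Each reported value is a median over duplicate plates. It expresses relative viability: treated-well nuclei count divided by vehicle-well nuclei count. Lung cancer cell lines in 1536-well plates were dosed by pin tool a day after seeding, alone with one drug or with a fixed anchor-drug dose plus five library-drug doses (not always all listed) in √10 steps, and nuclei were counted after 5 days.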

Pictilisib + Luminespib = compound: CS(=O)(=O)N1CCN(Cc2cc3nc(-c4cccc5[nH]ncc45)nc(N4CCOCC4)c3s2)CC1 [Pictilisib] + CCNC(=O)c1noc(-c2cc(C(C)C)c(O)cc2O)c1-c1ccc(CN2CCOCC2)cc1 [Luminespib] (partner 0.01 µM)
In short: as §1

MK-2206 + OSI-027 = compound: NC1(c2ccc(-c3nc4ccn5c(=O)[nH]nc5c4cc3-c3ccccc3)cc2)CCC1 [MK-2206] + COc1cccc2cc(-c3nc([C@H]4CC[C@H](C(=O)O)CC4)n4ncnc(N)c34)[nH]c12 [OSI-027] (partner 0.5 µM)
In short: as §1

MK-2206 + Tozasertib = compound: NC1(c2ccc(-c3nc4ccn5c(=O)[nH]nc5c4cc3-c3ccccc3)cc2)CCC1 [MK-2206] + Cc1cc(Nc2cc(N3CCN(C)CC3)nc(Sc3ccc(NC(=O)C4CC4)cc3)n2)n[nH]1 [Tozasertib] (partner 0.1 µM)
In short: as §1

MK-2206 + Alpelisib = compound: NC1(c2ccc(-c3nc4ccn5c(=O)[nH]nc5c4cc3-c3ccccc3)cc2)CCC1 [MK-2206] + Cc1nc(NC(=O)N2CCC[C@H]2C(N)=O)sc1-c1ccnc(C(C)(C)C(F)(F)F)c1 [Alpelisib] (partner 2 µM)
In short: as §1

Cell Line | relative viability (Pictilisib + Bortezomib; first compound 0.02 µM) | relative viability (Pictilisib + Bortezomib; first compound 0.06325 µM) | relative viability (Pictilisib + Bortezomib; first compound 0.6325 µM) | relative viability (Pictilisib + Bortezomib; first compound 2 µM) | relative viability (Pictilisib + Luminespib; first compound 0.02 µM) | relative viability (Pictilisib + Luminespib; first compound 0.06325 µM) | relative viability (Pictilisib + Luminespib; first compound 0.6325 µM) | relative viability (Pictilisib + Luminespib; first compound 2 µM) | relative viability (MK-2206 + OSI-027; first compound 0.01 µM) | relative viability (MK-2206 + OSI-027; first compound 0.03162 µM) | relative viability (MK-2206 + OSI-027; first compound 0.3162 µM) | relative viability (MK-2206 + OSI-027; first compound 1 µM) | relative viability (MK-2206 + Tozasertib; first compound 0.01 µM) | relative viability (MK-2206 + Tozasertib; first compound 0.03162 µM) | relative viability (MK-2206 + Tozasertib; first compound 0.3162 µM) | relative viability (MK-2206 + Tozasertib; first compound 1 µM) | relative viability (MK-2206 + Alpelisib; first compound 0.01 µM) | relative viability (MK-2206 + Alpelisib; first compound 0.03162 µM) | relative viability (MK-2206 + Alpelisib; first compound 0.3162 µM) | relative viability (MK-2206 + Alpelisib; first compound 1 µM)
NCI-H2023 | 1.17 | 0.764 | 0.511 | 0.223 | 0.936 | 0.753 | 0.286 | 0.103 | 0.407 | 0.366 | 0.208 | 0.227 | 0.345 | 0.347 | 0.239 | 0.197 | 0.517 | 0.598 | 0.472 | 0.405
EPLC-272H | 0.971 | 1.12 | 0.607 | 0.615 | 0.213 | 0.424 | 0.184 | 0.207 | 0.31 | 0.259 | 0.26 | 0.266 | 0.292 | 0.378 | 0.344 | 0.246 | 0.993 | 0.851 | – | 0.929
SK-LU-1 | 1.64 | 1.27 | 0.81 | 0.63 | 0.227 | 0.193 | 0.168 | 0.178 | 0.349 | 0.325 | 0.224 | 0.325 | 0.212 | 0.334 | 0.376 | 0.291 | 1.13 | 0.979 | 0.993 | 0.876
ABC-1 | 0.313 | 0.316 | 0.281 | 0.223 | 0.514 | 0.583 | 0.394 | 0.545 | 0.552 | 0.494 | 0.381 | 0.379 | 0.145 | 0.148 | 0.167 | 0.163 | 0.964 | 0.915 | 0.848 | 0.812
NCI-H2085 | 1.08 | 1.07 | 0.871 | 0.467 | 0.44 | 0.431 | 0.409 | 0.265 | 0.676 | 0.819 | 0.474 | 0.365 | 0.781 | 0.793 | 0.786 | 0.716 | 0.928 | 0.914 | 0.807 | 0.702
NCI-H2087 | 0.733 | 0.772 | 0.953 | 0.503 | 0.138 | 0.144 | 0.19 | 0.165 | 0.548 | 0.636 | 0.392 | 0.303 | 0.26 | 0.242 | 0.223 | 0.259 | 1.17 | 1.03 | 1.12 | 1.1
NCI-H322M | 1.11 | 1.2 | 0.873 | 0.907 | 0.857 | 0.763 | 0.511 | 0.263 | 0.484 | 0.49 | 0.386 | 0.377 | 0.455 | 0.552 | 0.449 | 0.455 | 0.864 | 0.79 | 0.732 | 0.701
NCI-H1734 | 0.995 | 0.903 | 0.585 | 0.335 | 0.174 | 0.179 | 0.164 | 0.171 | 0.603 | 0.572 | 0.366 | 0.356 | 0.28 | 0.244 | 0.261 | 0.252 | 0.709 | 0.625 | 0.451 | 0.521
NCI-H2228 | 0.915 | 1.04 | 0.689 | 0.528 | 0.12 | 0.184 | 0.129 | 0.121 | 0.69 | 0.446 | 0.271 | 0.214 | 0.388 | 0.235 | 0.221 | 0.11 | 0.625 | 0.621 | 0.288 | 0.262
EKVX | 1.13 | 0.937 | 0.66 | 0.394 | 0.875 | 0.942 | 0.833 | 0.408 | 0.777 | 0.707 | 0.646 | 0.59 | 0.405 | 0.395 | 0.344 | 0.329 | 0.761 | 0.904 | 0.843 | 0.82
NCI-H596 | 1.02 | 1.09 | 0.487 | 0.435 | 0.942 | 0.92 | 0.442 | 0.153 | 0.706 | 0.887 | 0.591 | 0.41 | 0.912 | 1.01 | 0.829 | 0.765 | 0.518 | 0.623 | 0.401 | 0.473
NCI-H1975 | 0.358 | 0.443 | 0.284 | 0.239 | 0.19 | 0.172 | 0.142 | 0.136 | 0.745 | 0.611 | 0.42 | 0.381 | 0.798 | 0.66 | 0.573 | 0.535 | 0.657 | 0.551 | 0.509 | 0.487
NCI-H1666 | 0.854 | 0.744 | 0.545 | 0.388 | 1.02 | 1.07 | 0.937 | 0.651 | 0.845 | 0.806 | 0.729 | 0.767 | 0.636 | 0.631 | 0.647 | 0.594 | 0.957 | 0.89 | 0.729 | 0.735
PC-3 [JPC-3] | 0.795 | 0.87 | 0.896 | 0.811 | 0.604 | 0.775 | 0.509 | 0.462 | 0.825 | 0.749 | 0.6 | 0.641 | 0.874 | 0.83 | 0.873 | 0.899 | 0.985 | 1.01 | 1.02 | 1.04
NCI-H1755 | 1.01 | 0.906 | 0.86 | 0.339 | 0.412 | 0.384 | 0.305 | 0.189 | 0.76 | 0.723 | 0.509 | 0.6 | 0.647 | 0.549 | 0.582 | 0.513 | 0.919 | 0.93 | 0.881 | 0.863
RERF-LC-KJ | 1.13 | 1.13 | 1.09 | 0.672 | 1.23 | 1.29 | 1 | 0.855 | 0.647 | 0.531 | 0.417 | 0.381 | 0.538 | 0.529 | 0.461 | 0.364 | 0.922 | 0.802 | 0.663 | 0.697
